Measured values published in paper PMC5824344 (ACS Chemical Biology, 2017).
pIC50: −log10 of the molar value.

What was measured:
[1] = biological target: T1, Rat liver ER α-glucosidase I (Rattus norvegicus, UniProt O88941); test: Inhibition of isolated rat liver ER α-glucosidase I (anthranilic acid-labelled Glc3Man7GlcNAc2 substrate, HPLC); assay type: biochemical; details: isolated enzyme in vitro; mean of three measurements
T1 construct: Rat liver ER, I; from tissue; host or cells: liver of male Wistar rats
T1 sequence (O88941 1-834): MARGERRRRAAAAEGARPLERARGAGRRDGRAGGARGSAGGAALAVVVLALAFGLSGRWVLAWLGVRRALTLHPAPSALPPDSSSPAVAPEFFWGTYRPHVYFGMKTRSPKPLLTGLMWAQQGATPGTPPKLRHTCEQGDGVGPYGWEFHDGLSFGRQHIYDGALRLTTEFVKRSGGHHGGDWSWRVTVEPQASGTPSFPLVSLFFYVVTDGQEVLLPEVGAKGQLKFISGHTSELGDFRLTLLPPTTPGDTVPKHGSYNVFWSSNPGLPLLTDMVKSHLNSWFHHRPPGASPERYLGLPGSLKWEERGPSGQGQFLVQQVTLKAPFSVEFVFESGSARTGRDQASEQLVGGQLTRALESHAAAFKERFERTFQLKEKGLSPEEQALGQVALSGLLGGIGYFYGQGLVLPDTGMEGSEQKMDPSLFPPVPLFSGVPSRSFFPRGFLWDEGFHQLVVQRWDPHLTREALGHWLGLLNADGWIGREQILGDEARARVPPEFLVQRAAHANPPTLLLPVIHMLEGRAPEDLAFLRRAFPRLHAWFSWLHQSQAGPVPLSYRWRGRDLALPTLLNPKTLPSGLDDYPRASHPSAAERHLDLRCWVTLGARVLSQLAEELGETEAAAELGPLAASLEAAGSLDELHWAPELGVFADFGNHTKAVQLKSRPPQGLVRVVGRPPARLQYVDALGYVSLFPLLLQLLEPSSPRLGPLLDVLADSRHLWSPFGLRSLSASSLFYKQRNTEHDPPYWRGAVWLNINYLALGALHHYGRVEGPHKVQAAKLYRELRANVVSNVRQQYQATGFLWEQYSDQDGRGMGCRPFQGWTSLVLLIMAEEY
Method: (§1) 4 Enzyme Inhibition Assays
(§2) All rat enzymes were isolated from 18-week-old, male Wistar rats, while human lysosomal α-glucosidase was obtained in commercially available form from Sanoﬁ Genzyme. Inhibition of isolated glucosidases was evaluated as described previously. 3 Brieﬂy, maltase, isomaltase, sucrase, and cellobiase were used as partially puriﬁed tissue extracts. Inhibition assays for each enzyme were performed with the respective natural substrate, and release of d-glucose measured by Glucose B-test (Wako Diagnostics). Assays of rat ER α-glucosidase II and human lysosomal α-glucosidase inhibition were conducted with α-p-nitrophenylglucoside as substrate; 400 mm Na2CO3 was added to quench these reactions, and the extent of hydrolysis was evaluated as absorbance at 400 nm by spectrophotometer.
(§3) ER α-glucosidase I inhibition assays were performed using anthranilic acid-labelled Glc3Man7GlcNAc2 as substrate. After terminating the reaction with acetonitrile, protein was removed by cen-trifugation through a 10 kDa molecular weight cut oﬀ ﬁlter. The amount of hydrolysis was then quantiﬁed by normal phase high performance liquid chromatography analysis of unreacted substrate and product (Glc2Man7GlcNAc2).4
(§4) ER α-glucosidase II inhibition assays using native-like substrates were performed using an-thranilic acid-labelled Glc2Man7GlcNAc2 as substrate. After terminating the reaction with acetonitrile, protein was removed by centrifugation through a 10 kDa molecular weight cut oﬀ ﬁlter. The amount of hydrolysis was then quantiﬁed by normal phase high performance liq-uid chromatography analysis of unreacted substrate and both products (Glc1Man7GlcNAc2

[2] = biological target: T2, Rat liver ER α-glucosidase II (Rattus norvegicus, UniProt A0A8I6GFL3); test: Inhibition of isolated rat liver ER α-glucosidase II (α-p-nitrophenylglucoside substrate); assay type: biochemical; details: isolated enzyme in vitro; read-out: IC50 with regard to GluII
T2 construct: Rat liver ER, II; from tissue; host or cells: liver of male Wistar rats
T2 sequence (A0A8I6GFL3 33-944): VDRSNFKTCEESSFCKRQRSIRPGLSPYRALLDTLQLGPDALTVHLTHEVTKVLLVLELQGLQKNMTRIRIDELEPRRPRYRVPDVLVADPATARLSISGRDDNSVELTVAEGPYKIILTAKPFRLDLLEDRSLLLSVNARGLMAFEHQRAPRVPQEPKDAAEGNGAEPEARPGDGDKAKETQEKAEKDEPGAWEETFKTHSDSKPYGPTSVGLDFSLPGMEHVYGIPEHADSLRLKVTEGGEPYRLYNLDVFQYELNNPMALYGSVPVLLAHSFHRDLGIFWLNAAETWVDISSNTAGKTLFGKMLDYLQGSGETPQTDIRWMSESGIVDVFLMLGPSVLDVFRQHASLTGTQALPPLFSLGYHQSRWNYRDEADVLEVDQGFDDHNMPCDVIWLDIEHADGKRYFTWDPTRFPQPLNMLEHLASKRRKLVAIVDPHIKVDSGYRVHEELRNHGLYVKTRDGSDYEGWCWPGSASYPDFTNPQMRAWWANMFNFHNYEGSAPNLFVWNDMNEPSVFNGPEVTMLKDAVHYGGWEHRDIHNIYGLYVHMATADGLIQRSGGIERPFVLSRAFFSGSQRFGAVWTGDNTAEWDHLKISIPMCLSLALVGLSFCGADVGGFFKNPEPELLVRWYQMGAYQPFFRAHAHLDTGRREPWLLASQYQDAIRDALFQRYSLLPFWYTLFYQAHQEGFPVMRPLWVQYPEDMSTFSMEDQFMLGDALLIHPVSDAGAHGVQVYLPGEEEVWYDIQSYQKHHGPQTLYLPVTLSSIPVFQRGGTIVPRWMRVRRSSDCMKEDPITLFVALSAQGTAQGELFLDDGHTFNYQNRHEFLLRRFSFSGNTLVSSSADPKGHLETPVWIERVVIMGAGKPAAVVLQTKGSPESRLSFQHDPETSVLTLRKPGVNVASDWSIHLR
T2 sequence (A0A8I6ADW9 1-525 partner): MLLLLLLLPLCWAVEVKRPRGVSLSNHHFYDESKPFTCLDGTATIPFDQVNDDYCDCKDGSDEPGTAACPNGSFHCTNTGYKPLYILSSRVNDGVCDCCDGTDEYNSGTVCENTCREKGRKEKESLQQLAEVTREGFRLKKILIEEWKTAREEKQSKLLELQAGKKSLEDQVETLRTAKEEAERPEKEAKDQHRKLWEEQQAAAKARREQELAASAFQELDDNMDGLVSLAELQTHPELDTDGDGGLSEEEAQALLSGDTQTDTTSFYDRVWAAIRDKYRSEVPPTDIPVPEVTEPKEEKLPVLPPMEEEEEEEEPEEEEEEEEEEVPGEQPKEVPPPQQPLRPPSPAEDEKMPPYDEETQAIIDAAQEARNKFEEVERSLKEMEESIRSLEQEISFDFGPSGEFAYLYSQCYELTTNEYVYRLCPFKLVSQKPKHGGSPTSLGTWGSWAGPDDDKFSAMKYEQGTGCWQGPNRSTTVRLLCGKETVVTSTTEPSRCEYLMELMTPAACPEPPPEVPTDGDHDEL
Method: as §1, §2, §3, §4

Rat intestinal maltase = test: Inhibition of rat intestinal maltase (natural substrate, glucose release); assay type: biochemical; details: isolated enzyme in vitro; mean of three measurements; read-out: IC50, α-Glucosidase, Rat intestinal maltase
Method: as §1, §2, §3, §4

[3] = biological target: T3, Rat intestinal isomaltase (Rattus norvegicus, UniProt P23739); test: Inhibition of rat intestinal isomaltase (natural substrate, glucose release); assay type: biochemical; details: isolated enzyme in vitro; mean of three measurements; read-out: IC50, α-Glucosidase, Rat intestinal isomaltase
T3 construct: from tissue; host or cells: intestine of male Wistar rats, partially purified extract
T3 sequence (P23739 whole entry): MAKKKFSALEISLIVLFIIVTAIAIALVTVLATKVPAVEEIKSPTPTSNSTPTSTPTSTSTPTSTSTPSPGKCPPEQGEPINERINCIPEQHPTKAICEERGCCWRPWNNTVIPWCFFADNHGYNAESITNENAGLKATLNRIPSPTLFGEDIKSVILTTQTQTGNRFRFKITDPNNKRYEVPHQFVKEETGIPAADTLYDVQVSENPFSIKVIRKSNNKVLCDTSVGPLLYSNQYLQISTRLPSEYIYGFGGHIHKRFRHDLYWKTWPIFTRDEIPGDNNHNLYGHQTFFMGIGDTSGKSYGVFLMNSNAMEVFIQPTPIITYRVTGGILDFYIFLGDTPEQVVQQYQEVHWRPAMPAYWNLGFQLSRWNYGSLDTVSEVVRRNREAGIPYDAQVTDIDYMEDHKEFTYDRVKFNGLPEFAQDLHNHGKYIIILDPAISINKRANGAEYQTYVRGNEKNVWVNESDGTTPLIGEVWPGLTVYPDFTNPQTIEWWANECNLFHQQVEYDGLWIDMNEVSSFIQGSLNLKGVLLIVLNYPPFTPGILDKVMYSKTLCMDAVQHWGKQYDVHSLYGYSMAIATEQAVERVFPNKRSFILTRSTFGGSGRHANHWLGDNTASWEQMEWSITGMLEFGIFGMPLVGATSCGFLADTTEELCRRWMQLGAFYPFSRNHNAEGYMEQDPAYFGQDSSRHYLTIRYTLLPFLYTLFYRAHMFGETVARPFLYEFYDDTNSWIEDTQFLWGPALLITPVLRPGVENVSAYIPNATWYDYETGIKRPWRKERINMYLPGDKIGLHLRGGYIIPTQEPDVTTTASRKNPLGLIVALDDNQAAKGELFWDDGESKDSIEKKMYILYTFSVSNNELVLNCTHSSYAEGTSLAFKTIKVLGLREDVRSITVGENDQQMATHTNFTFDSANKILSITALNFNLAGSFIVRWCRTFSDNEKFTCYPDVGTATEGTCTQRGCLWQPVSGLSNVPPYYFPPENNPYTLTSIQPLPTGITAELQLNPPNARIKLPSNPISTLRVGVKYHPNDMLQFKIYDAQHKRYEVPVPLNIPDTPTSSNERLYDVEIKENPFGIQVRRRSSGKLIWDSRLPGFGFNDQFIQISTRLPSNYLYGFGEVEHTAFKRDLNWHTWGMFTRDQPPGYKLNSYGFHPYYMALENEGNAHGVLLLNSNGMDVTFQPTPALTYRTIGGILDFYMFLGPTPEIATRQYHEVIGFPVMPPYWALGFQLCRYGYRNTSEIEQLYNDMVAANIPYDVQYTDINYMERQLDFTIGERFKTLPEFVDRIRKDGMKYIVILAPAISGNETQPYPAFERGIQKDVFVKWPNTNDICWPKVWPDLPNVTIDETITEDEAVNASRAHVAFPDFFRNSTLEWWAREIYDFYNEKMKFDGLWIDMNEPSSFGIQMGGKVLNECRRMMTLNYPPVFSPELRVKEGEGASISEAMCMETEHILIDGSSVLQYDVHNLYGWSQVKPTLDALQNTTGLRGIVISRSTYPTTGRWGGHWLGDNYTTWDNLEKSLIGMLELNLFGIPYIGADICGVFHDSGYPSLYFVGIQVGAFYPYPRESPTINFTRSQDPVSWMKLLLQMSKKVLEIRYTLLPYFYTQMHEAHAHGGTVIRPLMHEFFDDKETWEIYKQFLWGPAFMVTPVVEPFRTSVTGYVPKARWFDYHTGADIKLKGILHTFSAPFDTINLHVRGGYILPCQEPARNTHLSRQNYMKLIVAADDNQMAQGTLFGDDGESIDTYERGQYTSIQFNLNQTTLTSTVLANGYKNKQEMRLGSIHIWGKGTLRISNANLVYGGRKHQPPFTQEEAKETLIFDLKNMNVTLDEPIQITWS
Method: as §1, §2, §3, §4

[4] = tested on: DENV2 strain 16681 in primary human MDMΦ; test: DENV primary MDMΦ antiviral assay (infectious titer by plaque assay); assay type: cell-based, dengue virus; details: dengue-infected MDMΦ, 7 donors
Method: each well was scored as either positive (≥ 5 stained cells) or negative. TCID50 values were calculated according to the method of Reed and Muench.8
5.7 DENV Primary MDMΦ Antiviral Assay
DENV2 strain 16681 (a gift from Prof. E. Gould, Centre for Ecology and Hydrology, Oxford, United Kingdom) was propagated in the C6/36 cell line. In the antiviral assay, MDMΦ cells (7 donors) were seeded in a 24-well plate at a density of 1× 10^6 cells/well in 1 mL of growth media. The cells were inoculated for 2 h with DENV2 16681 strain at an MOI of 1. […]
(§5) The infectious DENV titres in supernatants collected were evaluated by plaque assay as described previously.9 Brieﬂy, LLC-MK2 cells were seeded in conﬂuent monolayers in a 12-well plate. Four 10-fold dilutions of each supernatant to be analyzed were prepared in minimum essential media (MEM, Gibco), supplemented with 100 µg mL−1 streptomycin, 100 U mL−1 penicillin and 10% (v/v) FCS. […]
(§6) After 1 d, plaques were observed and counted from the underside of the plate by eye. […]
18 healthy male BALB/c mice (8 – 12 weeks old) weighing between 20 and 35 g were procured from ACTREC, Mumbai, India. […] Temperature and humidity were recorded by an auto-controlled data logging system and maintained at 22± 3◦C and 55± 15% humidity, respectively. […]

[5] = tested on: DENV (serotype 2, strain 16681) in Huh7.5 cells; test: DENV Huh7.5 antiviral assay (infectious titer by plaque assay); assay type: cell-based, dengue virus; details: MOI 0.1, 48 h, titration of 4 or 50 µm of 3
Method: (§7) Supplemental Figure 3: Antiviral activity of 4 in human hepatoma Huh7.5 cell line.
(§8) (A) Huh7.5 cells were infected with DENV (serotype 2, strain 16681, multiplicity of infection = 0.1) and treated with a titration of ToP-DNJ 4 or 50 µm of tocopherol 3 for 48 h. Infectious virus titer was measured by plaque assay on LLC-MK2 cells. Counts were normalized to 100% for untreated samples.
(§9) DENV eﬀect at the concentrations tested. (B) Huh7.5 cells were infected with HCV (JFH-1, multiplicity of infection = 2) and treated with a titration of ToP-DNJ 4 or 50 µm tocopherol 3 for 96 h. Infectious virus titer was measured by TCID50 assay on […]
(§10) tested. In both panels, each data point represent the mean of triplicates, with error bars showing standard error of the mean (GraphPad Prism). […]
(§11) each well was scored as either positive (≥ 5 stained cells) or negative. TCID50 values were calculated according to the method of Reed and Muench.8 […]
as §5, §6

[6] = tested on: HCV (JFH-1) in Huh7.5 cells; test: HCV antiviral assay in Huh7.5 cells (infectious titer by TCID50 assay); assay type: cell-based, hepatitis C virus; details: MOI 2, 96 h, titration of 4 or 50 µm of 3
Method: as §7, §8, §9, §10
Huh7.5 cells were seeded in a 96-well plate at a density of 5× 10^3 cells/well in 100 µL growth media. […] The supernatant was harvested, and infectious viral titre assessed immediately in the TCID50 assay.
Huh7.5 cells were seeded in a 96-well plate at a density of 2× 10^4 cells/well in 100 µL of growth media and incubated for 18 h. The supernatants to be evaluated were diluted 1:10 in growth media, and 7 serial half-log10 dilutions were subsequently prepared in the same media. […]
as §11

[7] = set-up: method as in PMID 15522126; details: cited from earlier work

Row | pIC50 [1] | pIC50 [2] | pIC50 (Rat intestinal maltase) | pIC50 [3] | Structure (SMILES) | antiviral effect on infectious virus titer [4] | anti-DENV effect (infectious virus titer) [5] | anti-HCV effect (infectious virus titer) [6] | increase of plasma levels when consumed with a lipid-rich meal [7] [fold]
1 | 5.66 | 4.80 | 6.80 | 6.10 | OC[C@H]1NC[C@H](O)[C@@H](O)[C@@H]1O [Compound 1, D-1-deoxynojirimycin, reference compound] |  |  |  | 
2 |  |  |  |  | Cc1c(C)c2c(c(C)c1O)CCC(C)(CCCC(C)CCCC(C)CCCC(C)C)O2 [Compound 3, D-(+)-α-tocopherol, reference compound] | no antiviral effect | Neither 4 nor 3 showed an anti- | Neither 4 nor 3 showed an anti-HCV eﬀect | 10
